{"source": "patent US20220264878A1", "about": "“HERBICIDAL COMPOSITION CONTAINING R-TYPE PYRIDYLOXY CARBOXYLIC ACID DERIVATIVE AND USE THEREOF” (Qingdao Kingagroot Chemical Compound Co., Ltd., priority 2019, published 2022)", "type_in_all_cases": "in vivo", "key": {"[1]": {"tested_on": "Echinochloa crusgalli var. zelayensis", "test": "Soil sealing treatment, pot culture, fresh weight inhibition (Tables 49, 50)", "procedure": "(§1) A method for investigating absolute number was employed, wherein whole seedlings of survival weeds were cut off with a blade along the soil surface, and the fresh weight of the weeds was weighed with an analytical balance. For dead weeds, the fresh weight thereof was zero.\n(§2) Theoretical fresh weight inhibition rate of a combination of two active ingredients in each group was calculated by the Gowing method (E0=X+Y−X*Y/100), and then compared with an actually measured inhibition rate (E), thereby effect of the combination (hereafter referred to as combined effect) on weeds was evaluated: the value of E-E0, which was greater than 10%, corresponded to a synergistic effect, the value of E-E0, which was less than −10%, corresponded to an antagonistic effect, and the value of E-E0, which was from −10% to 10%, corresponded to an additional effect. […] Wherein, in the formula, X represented the fresh weight inhibition rate of the active ingredient A in a dosage of P, and Y represented the fresh weight inhibition rate of the active ingredient B in a dosage of Q.\n(§3) Echinochloa crusgalli var zelayensis were collected in Huai'an of Jiangsu Province; Echinochloa caudate were collected in Pingluo of Ningxia Province; Echinochloa oryzoides were collected in Qiqiha'er of Heilongjiang Province.\n(§4) The culture was carried out in a controllable sunlight greenhouse at 20 to 30° C., in natural light, and relative humidity of 57% to 72%. […] The test soil was placed quantitatively to ¾ of the pots and then watered from the bottom of the pots to completely wet the soil to saturation. The pretreated test weed seeds were uniformly sowed on the surface, then covered with 0.5-2 cm soil according to the seed size, and ready-for use 24 hours after sowing.\n(§5) The technical materials were all dissolved in acetone, and diluted with an aqueous solution containing 0.1% emulsifier T-80. The dilution is performed as required.\n(§6) A ratio of A to the active ingredient B and amounts thereof in each group depends on the characteristics and toxicity of the two agents, as well as the main application purpose of a corresponding formulation. Based on the pre-tests in this study, the dosage of A and the active ingredient B applied alone and in combination were shown in the tables. Water containing the solvent and emulsifier same with the above groups but free of the agents was used as a blank control.\n(§7) 3 pots with 30 weed seeds per pot were treated in one treatment with 4 replications per treatment.\n(§8) The pots which were sowed and mulched were evenly placed on a platform with an area of 0.5 m^2, and a solution of agents was sprayed on soil surface thereof by the 3WP-2000-type walking spray tower at a dosage of […] and at a spray pressure of 0.3 MPa. After all the solution was sprayed, the valve was closed. After 30 seconds, the door of the spray tower was opened, and the nutritional bowl was taken out. Then the valve was opened, and the spray tube was cleaned by spraying 50 ml of water.\n(§9) This section was same as the section 4) in the post-emergence treatment by performing foliage spray, and was not repeated herein."}, "[2]": {"tested_on": "Conyza Canadensis", "test": "Post-emergence foliage spray, pot culture, fresh weight inhibition (Tables 151-206; 20 days)", "settings": "20 days after treatment", "outline": "(§10)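 Field-collected weeds grown in pots in a greenhouse (20-30° C., natural light, 57-72% RH), 15 per pot, 3 pots × 4 replicates. Single foliar spray at 4-5 leaves (grasses) or 5-6 leaves (broadleaf) with acetone/0.1% Tween-80 dilutions at 450 kg/ha, 0.3 MPa. Above-ground fresh weight inhibition versus solvent blank at 20 days.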"}, "[3]": {"tested_on": "Veronica didyma", "test": "Post-emergence foliage spray, pot culture, fresh weight inhibition (Tables 151-206; 20 days)", "settings": "20 days after treatment", "outline": "as §10"}, "[4]": {"tested_on": "Malachium aquaticum", "test": "Post-emergence foliage spray, pot culture, fresh weight inhibition (Tables 1-48, 51-98, 101-148; 24 days)", "outline": "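Pot-grown weeds were thinned to 15 per pot (45 per treatment) and sprayed on foliage at the 5–6-leaf stage for grasses or the 6–7-leaf stage for broadleaves. Agents were dissolved in acetone with 0.1% Tween-80 and applied at 450 kg/ha spray volume and 0.3 MPa. Plants were then kept in a greenhouse. Above-ground fresh weight of survivors, with dead plants counted as zero, gave inhibition versus a solvent/emulsifier blank.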"}, "[5]": {"tested_on": "Echinochloa caudate", "test": "Soil sealing treatment, pot culture, fresh weight inhibition (Tables 99, 100)", "procedure": "as §1, §2, §3, §4, §5, §6, §7, §8, §9"}}}
{"compound": "C[C@@H](Oc1nc(F)c(Cl)c(N)c1Cl)C(=O)OCC1CCCO1", "note": "(stereo partly drawn) [Compound A2]", "values": [{"measurement": "Control effect (%) of A applied alone in corresponding dose", "setting": "[1]; A2 75 g a.i./ha", "value": 21.4, "unit": "%"}, {"measurement": "Control effect (%) of A applied alone in corresponding dose", "setting": "[1]; A2 150 g a.i./ha", "value": 45.2, "unit": "%"}, {"measurement": "Control effect (%) of A applied alone in corresponding dose", "setting": "[2]; A alone 75 g a.i./ha", "value": 38.1, "unit": "%"}, {"measurement": "Control effect (%) of A applied alone in corresponding dose", "setting": "[2]; A alone 150 g a.i./ha", "value": 54.4, "unit": "%"}, {"measurement": "Control effect (%) of A applied alone in corresponding dose", "setting": "[3]; A alone 75 g a.i./ha", "value": 19.7, "unit": "%"}, {"measurement": "Control effect (%) of A applied alone in corresponding dose", "setting": "[3]; A alone 150 g a.i./ha", "value": 36.6, "unit": "%"}]}
{"compound": "C[C@@H](Oc1nc(F)c(Cl)c(N)c1Cl)C(=O)O", "note": "[Compound A1]", "values": [{"measurement": "Control effect (%) of A applied alone in corresponding dose", "setting": "[4]; A1 7.5 g a.i./ha", "value": 35.8, "unit": "%"}, {"measurement": "Control effect (%) of A applied alone in corresponding dose", "setting": "[4]; A1 15 g a.i./ha", "value": 69.6, "unit": "%"}, {"measurement": "Control effect (%) of A applied alone in corresponding dose", "setting": "[5]; Table 99, 75 g a.i./ha", "value": 23.4, "unit": "%"}, {"measurement": "Control effect (%) of A applied alone in corresponding dose", "setting": "[5]; Table 99, 150 g a.i./ha", "value": 47.2, "unit": "%"}, {"measurement": "Control effect (%) of A applied alone in corresponding dose", "setting": "[5]; Table 100, 75 g a.i./ha", "value": 23.4, "unit": "%"}, {"measurement": "Control effect (%) of A applied alone in corresponding dose", "setting": "[5]; Table 100, 150 g a.i./ha", "value": 47.2, "unit": "%"}]}
